# Laboratory results as given in US20230085307A1, “PYRIDAZINONE COMPOUND AND HERBICIDE” (NISSAN CHEMICAL CORPORATION, priority 2019, published 2023).
# Tested on: oval-leafed pondweed
# Assay: Test Example 1: herbicidal activity, application before weed generation under submerged conditions (Table 16, symbol C)
# Type: in vivo, oval-leafed pondweed (Monochoria vaginalis)
# Conditions: 320 g/ha applied herbicide
# Procedure, shortened: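 Submerged Wagner pots (alluvial soil, 4 cm water) sown with weed seeds and planted with 2.5-leaf rice seedlings; emulsifiable concentrate diluted in water applied to water surface on sowing day. Held in greenhouse at 25-30 °C; injury scored 0-5 by herbicidal rate after three weeks.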
row,SMILES,Herbicidal effect on C: oval-leafed pondweed (grade 0-5)
1,CCCC(=O)Oc1c(C)nn(C)c(=O)c1-c1c(-c2ccc(F)cc2OCC)sc2ccc(F)cc12 [2-085],1 (Herbicidal rate of 5% or more and less than 20%)
2,Cc1nn(C)c(=O)c(-c2c(-c3ccc4c(c3)OCCO4)sc3ccc(F)cc23)c1O [2-092],2 (Herbicidal rate of 20% or more and less than 40%)

# Tested on: Japanese bulrush
# Assay: Test Example 2: herbicidal activity, application during weed generation under submerged conditions (Table 17, symbol B)
# Type: in vivo, Japanese bulrush (Schoenoplectus juncoides)
# Conditions: AAH 320 g/ha; application during weed generation, submerged conditions
# Procedure, shortened: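 Steps: fill Wagner pots with alluvial soil; add water to give 4 cm depth; sow the species mixed; grow under glass at 25–30° C.; at 1–2 leaves apply water-diluted emulsion formulation to the water surface at a fixed herbicide amount; score after 3 weeks.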
row,SMILES,"herbicidal effect rating, B: Japanese bulrush"
1,CCCC(=O)Oc1c(C)nn(C)c(=O)c1-c1c(-c2ccc(F)cc2OCC)sc2ccc(F)cc12 [2-085],3 (Herbicidal rate of 40% or more and less than 70%)
2,Cc1nn(C)c(=O)c(-c2c(-c3ccc4c(c3)OCCO4)sc3ccc(F)cc23)c1O [2-092],3 (Herbicidal rate of 40% or more and less than 70%)

# Tested on: southern crabgrass
# Assay: Test Example 4: herbicidal effect by soil treatment (Table 19, symbol F)
# Type: in vivo, southern crabgrass (Digitaria ciliaris)
# Conditions: 320 g/ha
# Procedure, shortened: (§1)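 Three weeks of greenhouse growth at 25° C. to 30° C. followed a uniform surface spray of water-diluted emulsion at a predetermined herbicide amount. Seeds had been sown beforehand under about 1.5 cm of sterilized diluvial soil. Grading followed criteria set out in an earlier test.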
row,SMILES,"herbicidal effect rating, F: southern crabgrass"
1,CCCC(=O)Oc1c(C)nn(C)c(=O)c1-c1c(-c2ccc(F)cc2OCC)sc2ccc(F)cc12 [2-085],4 (Herbicidal rate of 70% or more and less than 90%)
2,Cc1nn(C)c(=O)c(-c2c(-c3ccc4c(c3)OCCO4)sc3ccc(F)cc23)c1O [2-092],2 (Herbicidal rate of 20% or more and less than 40%)

# Tested on: green foxtail
# Assay: Test Example 4: herbicidal effect by soil treatment (Table 19, symbol G)
# Type: in vivo, green foxtail (Setaria viridis)
# Conditions: 320 g/ha
# Procedure, shortened: as §1
row,SMILES,"herbicidal effect rating, G: green foxtail"
1,CCCC(=O)Oc1c(C)nn(C)c(=O)c1-c1c(-c2ccc(F)cc2OCC)sc2ccc(F)cc12 [2-085],3 (Herbicidal rate of 40% or more and less than 70%)
2,Cc1nn(C)c(=O)c(-c2c(-c3ccc4c(c3)OCCO4)sc3ccc(F)cc23)c1O [2-092],2 (Herbicidal rate of 20% or more and less than 40%)

# Tested on: barnyard grass
# Assay: Test Example 4: herbicidal effect by soil treatment (Table 19, symbol H)
# Type: in vivo, barnyard grass (Echinochloa crus-galli)
# Conditions: 320 g/ha
# Procedure, shortened: as §1
row,SMILES,"herbicidal effect rating, H: barnyard grass"
1,CCCC(=O)Oc1c(C)nn(C)c(=O)c1-c1c(-c2ccc(F)cc2OCC)sc2ccc(F)cc12 [2-085],3 (Herbicidal rate of 40% or more and less than 70%)
2,Cc1nn(C)c(=O)c(-c2c(-c3ccc4c(c3)OCCO4)sc3ccc(F)cc23)c1O [2-092],3 (Herbicidal rate of 40% or more and less than 70%)

# Tested on: wild oat
# Assay: Test Example 4: herbicidal effect by soil treatment (Table 19, symbol I)
# Type: in vivo, wild oat (Avena fatua)
# Conditions: 320 g/ha
# Procedure, shortened: as §1
row,SMILES,"herbicidal effect rating, I: wild oat"
1,CCCC(=O)Oc1c(C)nn(C)c(=O)c1-c1c(-c2ccc(F)cc2OCC)sc2ccc(F)cc12 [2-085],2 (Herbicidal rate of 20% or more and less than 40%)
2,Cc1nn(C)c(=O)c(-c2c(-c3ccc4c(c3)OCCO4)sc3ccc(F)cc23)c1O [2-092],0 (Herbicidal rate of 5% or less (almost no effect))

# Tested on: blackgrass
# Assay: Test Example 4: herbicidal effect by soil treatment (Table 19, symbol J)
# Type: in vivo, blackgrass (Alopecurus myosuroides)
# Conditions: 320 g/ha
# Procedure, shortened: as §1
row,SMILES,"herbicidal effect rating, J: blackgrass"
1,CCCC(=O)Oc1c(C)nn(C)c(=O)c1-c1c(-c2ccc(F)cc2OCC)sc2ccc(F)cc12 [2-085],0 (Herbicidal rate of 5% or less (almost no effect))
2,Cc1nn(C)c(=O)c(-c2c(-c3ccc4c(c3)OCCO4)sc3ccc(F)cc23)c1O [2-092],0 (Herbicidal rate of 5% or less (almost no effect))

# Tested on: velvetleaf
# Assay: Test Example 4: herbicidal effect by soil treatment (Table 19, symbol M)
# Type: in vivo, velvetleaf (Abutilon theophrasti)
# Conditions: 320 g/ha
# Procedure, shortened: as §1
row,SMILES,"herbicidal effect rating, M: velvetleaf"
1,CCCC(=O)Oc1c(C)nn(C)c(=O)c1-c1c(-c2ccc(F)cc2OCC)sc2ccc(F)cc12 [2-085],0 (Herbicidal rate of 5% or less (almost no effect))
2,Cc1nn(C)c(=O)c(-c2c(-c3ccc4c(c3)OCCO4)sc3ccc(F)cc23)c1O [2-092],5 (Herbicidal rate of 90% or more (almost completely withered))

# Tested on: lambsquarters
# Assay: Test Example 4: herbicidal effect by soil treatment (Table 19, symbol O)
# Type: in vivo, lambsquarters (Chenopodium album)
# Conditions: 320 g/ha
# Procedure, shortened: as §1
row,SMILES,"herbicidal effect rating, O: lambsquarters"
1,CCCC(=O)Oc1c(C)nn(C)c(=O)c1-c1c(-c2ccc(F)cc2OCC)sc2ccc(F)cc12 [2-085],3 (Herbicidal rate of 40% or more and less than 70%)
2,Cc1nn(C)c(=O)c(-c2c(-c3ccc4c(c3)OCCO4)sc3ccc(F)cc23)c1O [2-092],5 (Herbicidal rate of 90% or more (almost completely withered))

# Tested on: chickweed
# Assay: Test Example 4: herbicidal effect by soil treatment (Table 19, symbol P)
# Type: in vivo, common chickweed (Stellaria media)
# Conditions: 320 g/ha
# Procedure, shortened: as §1
row,SMILES,"herbicidal effect rating, P: chickweed"
1,CCCC(=O)Oc1c(C)nn(C)c(=O)c1-c1c(-c2ccc(F)cc2OCC)sc2ccc(F)cc12 [2-085],3 (Herbicidal rate of 40% or more and less than 70%)
2,Cc1nn(C)c(=O)c(-c2c(-c3ccc4c(c3)OCCO4)sc3ccc(F)cc23)c1O [2-092],4 (Herbicidal rate of 70% or more and less than 90%)

# Tested on: persian speedwell
# Assay: Test Example 4: herbicidal effect by soil treatment (Table 19, symbol R)
# Type: in vivo, Persian speedwell (Veronica persica)
# Conditions: 320 g/ha
# Procedure, shortened: as §1
row,SMILES,"herbicidal effect rating, R: persian speedwell"
1,CCCC(=O)Oc1c(C)nn(C)c(=O)c1-c1c(-c2ccc(F)cc2OCC)sc2ccc(F)cc12 [2-085],3 (Herbicidal rate of 40% or more and less than 70%)
2,Cc1nn(C)c(=O)c(-c2c(-c3ccc4c(c3)OCCO4)sc3ccc(F)cc23)c1O [2-092],5 (Herbicidal rate of 90% or more (almost completely withered))

# Tested on: Italian ryegrass
# Assay: Test Example 5: herbicidal effect by foliage application, plastic box (Table 20, symbol K)
# Type: in vivo, Italian ryegrass (Lolium multiflorum)
# Conditions: foliage application, 320 g/ha, evaluated three weeks after application
# Procedure, shortened: (§2)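 Plants sown in sterilized diluvial soil and grown 14 days in a greenhouse at 25° C to 30° C, then sprayed on the foliage with the compound's emulsion diluted in water to a predetermined herbicide amount. Injury to weeds and crops scored three weeks after application on a visual rating scale.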
row,SMILES,herbicidal effect on K: Italian ryegrass
1,CCCC(=O)Oc1c(C)nn(C)c(=O)c1-c1c(-c2ccc(F)cc2OCC)sc2ccc(F)cc12 [2-085],3 (Herbicidal rate of 40% or more and less than 70%)
2,Cc1nn(C)c(=O)c(-c2c(-c3ccc4c(c3)OCCO4)sc3ccc(F)cc23)c1O [2-092],4 (Herbicidal rate of 70% or more and less than 90%)

# Tested on: windgrass
# Assay: Test Example 5: herbicidal effect by foliage application, plastic box (Table 20, symbol L)
# Type: in vivo, windgrass (Apera spica-venti)
# Conditions: foliage application, 320 g/ha, evaluated three weeks after application
# Procedure, shortened: as §2
row,SMILES,herbicidal effect on L: windgrass
1,CCCC(=O)Oc1c(C)nn(C)c(=O)c1-c1c(-c2ccc(F)cc2OCC)sc2ccc(F)cc12 [2-085],1 (Herbicidal rate of 5% or more and less than 20%)
2,Cc1nn(C)c(=O)c(-c2c(-c3ccc4c(c3)OCCO4)sc3ccc(F)cc23)c1O [2-092],4 (Herbicidal rate of 70% or more and less than 90%)

# Tested on: velvetleaf
# Assay: Test Example 5: herbicidal effect by foliage application, plastic box (Table 20, symbol M)
# Type: in vivo, velvetleaf (Abutilon theophrasti)
# Conditions: foliage application, 320 g/ha, evaluated three weeks after application
# Procedure, shortened: as §2
row,SMILES,herbicidal effect on M: velvetleaf
1,CCCC(=O)Oc1c(C)nn(C)c(=O)c1-c1c(-c2ccc(F)cc2OCC)sc2ccc(F)cc12 [2-085],5 (Herbicidal rate of 90% or more (almost completely withered))
2,Cc1nn(C)c(=O)c(-c2c(-c3ccc4c(c3)OCCO4)sc3ccc(F)cc23)c1O [2-092],5 (Herbicidal rate of 90% or more (almost completely withered))

# Tested on: redroot pigweed
# Assay: Test Example 5: herbicidal effect by foliage application, plastic box (Table 20, symbol N)
# Type: in vivo, redroot pigweed (Amaranthus retroflexus)
# Conditions: foliage application, 320 g/ha, evaluated three weeks after application
# Procedure, shortened: as §2
row,SMILES,herbicidal effect on N: redroot pigweed
1,CCCC(=O)Oc1c(C)nn(C)c(=O)c1-c1c(-c2ccc(F)cc2OCC)sc2ccc(F)cc12 [2-085],4 (Herbicidal rate of 70% or more and less than 90%)
2,Cc1nn(C)c(=O)c(-c2c(-c3ccc4c(c3)OCCO4)sc3ccc(F)cc23)c1O [2-092],5 (Herbicidal rate of 90% or more (almost completely withered))

# Tested on: lambsquarters
# Assay: Test Example 5: herbicidal effect by foliage application, plastic box (Table 20, symbol O)
# Type: in vivo, lambsquarters (Chenopodium album)
# Conditions: foliage application, 320 g/ha, evaluated three weeks after application
# Procedure, shortened: as §2
row,SMILES,herbicidal effect on O: lambsquarters
1,CCCC(=O)Oc1c(C)nn(C)c(=O)c1-c1c(-c2ccc(F)cc2OCC)sc2ccc(F)cc12 [2-085],3 (Herbicidal rate of 40% or more and less than 70%)
2,Cc1nn(C)c(=O)c(-c2c(-c3ccc4c(c3)OCCO4)sc3ccc(F)cc23)c1O [2-092],5 (Herbicidal rate of 90% or more (almost completely withered))

# Tested on: chickweed
# Assay: Test Example 5: herbicidal effect by foliage application, plastic box (Table 20, symbol P)
# Type: in vivo, common chickweed (Stellaria media)
# Conditions: foliage application, 320 g/ha, evaluated three weeks after application
# Procedure, shortened: as §2
row,SMILES,herbicidal effect on P: chickweed
1,CCCC(=O)Oc1c(C)nn(C)c(=O)c1-c1c(-c2ccc(F)cc2OCC)sc2ccc(F)cc12 [2-085],5 (Herbicidal rate of 90% or more (almost completely withered))
2,Cc1nn(C)c(=O)c(-c2c(-c3ccc4c(c3)OCCO4)sc3ccc(F)cc23)c1O [2-092],5 (Herbicidal rate of 90% or more (almost completely withered))
